Test results: BindingDB's records for doi:10.1016/s0960-894x(01)00039-7 (Glaxosmithkline, 2001)

Biological target: Tyrosine--tRNA ligase (Staphylococcus aureus)
Assay: Inhibitory activity against Staphylococcus aureus tyrosyl tRNA synthetase (YRS) using aminoacylation assay

IC50: 260 nM
Compound: N[C@@H](Cc1ccc(O)cc1)C(=O)N[C@@H](C(=O)O)[C@@H]1OC[C@H](O)[C@H](O)[C@H]1O [[2-Amino-3-((S)-4-hydroxy-phenyl)-propionylamino]-((2S,3R,4S,5S)-3,4,5-trihydroxy-tetrahydro-pyran-2-yl)-acetic acid]
